Several values for one entry are separate records, joined by “and”; a condition that tells them apart may be missing. Equal values may be shown once. Read-outs that look alike come from different tables or passages of the source.
What was measured:
[1] = target: T1, Pcs60 (Saccharomyces cerevisiae, UniProt P38137); format: binding, S. cerevisiae; conditions: read-out: Kd (MST); Tref 21 °C; 1:1 model
Description: MST curves for Pcs60/ γ S-ATP were acquired with a Nanotemper Monolith NT.LabelFree (Nanotemper) using the MO.Control v1.6 acquisition software and Monolith NT.LabelFree capillaries. The same protein concentration and buffer conditions as for the nDSF experiments were used (9.9 μM). 16 different ligand concentrations (serial dilution with a factor of 2) in the range between 5 mM and 0.15 μM were used for each measurement. For the MST experiment the IR laser power was set to 20% and the UV laser power to 1%. In total, two independent measurements were done plus an additional repeat. The data was exported as xlsx and analyzed and plotted with a self-written Python script. The regions for Fnorm determination were − 1–0 s for “cold” and 19–20 s for “hot”. For each curve Fnorm was calculated as the ratio between the mean values in the “hot” and “cold” region. In the final step, Fnorm was fitted to a 1:1 binding model. The self-written Python scripts for spectral analysis including MST analysis are available online: https://github.com/steniegit/libspec

[2] = target: T1, Pcs60; experiment: Differential scanning calorimetry (DSC) of Pcs60 with γS-ATP; format: binding, S. cerevisiae; conditions: Pcs60 180 µM, γS-ATP 192 µM
Description: 2Differential scanning calorimetry of Pcs60
Figure S24. Differential scanning calorimetry (DSC) of Pcs60 (180 µM) in absence and presence of its ligand γS-ATP (192 µM). Here the raw data is shown before baseline correction. […] The […]
temperature of the ﬁrst transition is shifted by ligand binding from 41.5 to 43.4◦C. […]
affected upon ligand binding. Since the two transitions overlap, it was not possible to extract a reliable value of the heat capacity change upon unfolding ∆Cp.
(also on this page, place not known: 2 30 40 50 60 70 Temperature / C 11 10 9 8 7 6 DP / mJ/min PCS60 PCS60 + S-ATP Differential)
(1 picture or pasted object on this page, not shown here)

[3] = target: wild-type Pcs60 (Saccharomyces cerevisiae, UniProt P38137); experiment: biochemical; format: binding, S. cerevisiae
Chain of wild-type Pcs60 (P38137 whole entry): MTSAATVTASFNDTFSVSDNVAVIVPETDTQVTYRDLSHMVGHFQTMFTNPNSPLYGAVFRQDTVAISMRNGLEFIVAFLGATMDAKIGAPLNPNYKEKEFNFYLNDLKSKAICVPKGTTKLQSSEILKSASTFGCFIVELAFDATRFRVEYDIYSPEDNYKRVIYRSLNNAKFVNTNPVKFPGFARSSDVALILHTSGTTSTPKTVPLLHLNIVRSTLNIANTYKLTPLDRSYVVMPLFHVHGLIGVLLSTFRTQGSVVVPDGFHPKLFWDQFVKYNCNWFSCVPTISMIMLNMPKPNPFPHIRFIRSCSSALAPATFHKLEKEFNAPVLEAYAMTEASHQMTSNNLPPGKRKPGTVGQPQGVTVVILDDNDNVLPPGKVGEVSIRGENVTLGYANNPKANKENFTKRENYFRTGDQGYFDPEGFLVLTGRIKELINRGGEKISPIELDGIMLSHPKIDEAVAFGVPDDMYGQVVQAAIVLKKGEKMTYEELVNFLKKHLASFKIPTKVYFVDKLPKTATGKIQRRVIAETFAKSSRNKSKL
Description: (§1) The following protocol was used for all nDSF experiments with Pcs60 and the nucleotide ligand γS-ATP. 14 dilutions of the nucleotide ligand (γS-ATP) starting at 5 mM at a constant Pcs60 concentration of 9.9 μM were prepared in buffer (50 mM HEPES pH 7.5, 150 mM NaCl, 0.5 mM TCEP). […] In addition to the ligand dilutions, a pure Pcs60 sample in the same buffer was used. If not stated otherwise, the measurements were run as triplicates (in total 45 temperature curves). The LED laser power for the experiments was between 70 and 80%.
Figure S29. (A) nDSF binding study for wild-type Pcs60 WT/γS-ATP. The region in the colored box was used for isothermal
analysis. […] (C) Isothermal analysis for […]

[4] = target: Pcs60 K523A mutant (Saccharomyces cerevisiae, UniProt P38137, K523A); experiment: biochemical; format: binding, S. cerevisiae
Chain of Pcs60 K523A mutant (P38137 whole entry K523A): as the sequence (P38137 whole entry) above, with K523A counted along it
Description: as §1

[5] = target: T1, Pcs60; format: binding, S. cerevisiae
[6] = target: SS1 (Danio rerio, UniProt A0A0R4IMY7); format: binding, zebrafish
Chain of SS1 (A0A0R4IMY7 32-415): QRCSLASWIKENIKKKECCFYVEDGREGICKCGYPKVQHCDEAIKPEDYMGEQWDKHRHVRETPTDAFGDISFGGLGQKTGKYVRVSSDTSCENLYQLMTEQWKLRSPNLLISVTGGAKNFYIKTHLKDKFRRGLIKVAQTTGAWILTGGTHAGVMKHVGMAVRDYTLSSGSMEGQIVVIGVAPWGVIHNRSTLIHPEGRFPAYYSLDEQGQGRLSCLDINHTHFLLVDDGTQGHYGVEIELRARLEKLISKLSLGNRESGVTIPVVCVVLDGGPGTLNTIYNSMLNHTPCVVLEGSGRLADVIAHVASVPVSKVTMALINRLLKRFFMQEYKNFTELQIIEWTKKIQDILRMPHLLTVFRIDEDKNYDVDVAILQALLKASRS

[7] = target: EG1 (Homo sapiens, UniProt Q9BW91); format: binding; conditions: ADPR 2 mM to 24 nM
Chain of EG1 (Q9BW91 59-350): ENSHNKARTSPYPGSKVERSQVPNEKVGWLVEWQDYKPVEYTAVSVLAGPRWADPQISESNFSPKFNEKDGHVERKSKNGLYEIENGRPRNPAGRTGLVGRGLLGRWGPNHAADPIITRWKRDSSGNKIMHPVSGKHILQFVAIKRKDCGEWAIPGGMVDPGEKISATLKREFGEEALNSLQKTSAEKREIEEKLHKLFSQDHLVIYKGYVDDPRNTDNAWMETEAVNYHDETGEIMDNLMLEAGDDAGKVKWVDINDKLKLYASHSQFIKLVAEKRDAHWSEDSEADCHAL

T1 sequence (P38137 whole entry): as the sequence (P38137 whole entry) above

Q: For `Nc1ncnc2c1ncn2[C@@H]1O[C@H](CO[P@](=O)(O)O[P@](=O)(O)O[P@@](=O)(O)S)[C@@H](O)[C@H]1O` [γS-ATP], which Kd [1] is on record?
A: Its Kd is 16 µM.

Q: And the “second transition at […] (DSC) upon ligand binding” value [2]?
A: Its value is “not”.

Q: And the “temperature of the first transition (DSC) upon ligand binding” value ([2]; 41.5 °C in absence of ligand)?
A: The value was 43.4 °C.

Q: What about the Kd ([3]; T=36 °C, ∆Cp = 0, read-out: Kd (isothermal analysis)) of the same molecule?
A: Its Kd is 19.7 µM.

Q: And the Kd ([3]; T=38 °C, ∆Cp = 0, read-out: Kd (isothermal analysis))?
A: The Kd was 20.2 µM.

Q: What about the Kd ([3]; T=40 °C, ∆Cp = 0, read-out: Kd (isothermal analysis)) of the same molecule?
A: Its Kd is 21 µM.

Q: And the Kd ([3]; T=42 °C, ∆Cp = 0, read-out: Kd (isothermal analysis))?
A: Its Kd is 22.5 µM.

Q: And the Kd ([3]; T=44 °C, ∆Cp = 0, read-out: Kd (isothermal analysis))?
A: Its Kd is 24.9 µM.

Q: And the Kd ([3]; T=46 °C, ∆Cp = 0, read-out: Kd (isothermal analysis))?
A: Its Kd is 28.7 µM.

Q: And the Kd ([3]; T=48 °C, ∆Cp = 0, read-out: Kd (isothermal analysis))?
A: The Kd was 39.5 µM.

Q: And the Kd ([3]; T=50 °C, ∆Cp = 0, read-out: Kd (isothermal analysis))?
A: The Kd was 78 µM.

Q: And the Kd ([3]; T=52 °C, ∆Cp = 0, read-out: Kd (isothermal analysis))?
A: Its Kd is 146 µM.

Q: What about the Kd ([3]; isothermal analysis, read-out: Kd values (summary in legend)) of the same molecule?
A: The Kd was about 20 µM.

Q: And the Kd ([3]; read-out: Kd,app Model 1 (melting temperature analysis))?
A: The Kd was 195 µM.

Q: And the Kd ([3]; read-out: Kd,app Model 2 (melting temperature analysis))?
A: Its Kd is 15.6 µM.

Q: What about the Kd ([4]; Kd (isothermal analysis)) of the same molecule?
A: The Kd was 252 µM and 297 µM and 246 µM and 236 µM and 227 µM and 219 µM and 212 µM and 221 µM.

Q: And the Kd ([4]; read-out: Kd (isothermal analysis of nDSF))?
A: The Kd was 213 µM.

Q: And the Kd ([4]; read-out: Kd, melting temperature analysis model 1)?
A: Its Kd is 741 µM.

Q: And the Kd ([4]; read-out: Kd, melting temperature analysis model 2)?
A: The Kd was 117 µM.

Q: What about the Kd ([5]; T=36 °C, fitted ∆Cp = 6.7 kcal/molK, read-out: Kd (isothermal analysis, fitted ∆Cp)) of the same molecule?
A: The Kd was 14.9 µM.

Q: What about the Kd ([5]; T=38 °C, fitted ∆Cp = 6.7 kcal/molK, read-out: Kd (isothermal analysis, fitted ∆Cp)) of the same molecule?
A: Its Kd is 15.4 µM.

Q: What about the Kd ([5]; T=40 °C, fitted ∆Cp = 6.7 kcal/molK, read-out: Kd (isothermal analysis, fitted ∆Cp)) of the same molecule?
A: The Kd was 17.1 µM.

Q: What about the Kd ([5]; T=42 °C, fitted ∆Cp = 6.7 kcal/molK, read-out: Kd (isothermal analysis, fitted ∆Cp)) of the same molecule?
A: Its Kd is 21.9 µM.

Q: And the Kd ([5]; T=44 °C, fitted ∆Cp = 6.7 kcal/molK, read-out: Kd (isothermal analysis, fitted ∆Cp))?
A: Its Kd is 32.4 µM.

Q: And the Kd ([5]; T=46 °C, fitted ∆Cp = 6.7 kcal/molK, read-out: Kd (isothermal analysis, fitted ∆Cp))?
A: The Kd was 41.1 µM.

Q: And the Kd ([5]; T=48 °C, fitted ∆Cp = 6.7 kcal/molK, read-out: Kd (isothermal analysis, fitted ∆Cp))?
A: Its Kd is 27.8 µM.

Q: What about the Kd ([5]; Tiso 40 °C, ∆Cp = 0, read-out: Kd (isothermal analysis of nDSF)) of the same molecule?
A: Its Kd is 18.4 µM.

Q: And the “Tm (melting temperature range of binding study)” value (“Tm” for short) ([5]; first transition)?
A: The value was 37–48 °C.

Q: What about the Kd ([5]; heating rate 1 °C/min, ∆Cp default 0 kcal/mol, Tsel 40 °C, read-out: Kd,Tsel) of the same molecule?
A: Its Kd is 18 µM.

Q: And the Kd ([5]; heating rate 1 °C/min, ∆Cp fitted 6.7 kcal/mol, Tsel 38 °C, read-out: Kd,Tsel)?
A: The Kd was 17 µM.

Q: What about the Kd ([5]; heating rate 3 °C/min, ∆Cp default 0 kcal/mol, Tsel 39 °C, read-out: Kd,Tsel) of the same molecule?
A: The Kd was 16 µM.

Q: And the Kd ([5]; heating rate 3 °C/min, ∆Cp fitted 6.7 kcal/mol, Tsel 39 °C, read-out: Kd,Tsel)?
A: The Kd was 19 µM.

Q: And the Kd ([5]; heating rate 5 °C/min, ∆Cp default 0 kcal/mol, Tsel 39 °C, read-out: Kd,Tsel)?
A: Its Kd is 23 µM.

Q: And the Kd ([5]; heating rate 5 °C/min, ∆Cp fitted 6.7 kcal/mol, Tsel 40 °C, read-out: Kd,Tsel)?
A: The Kd was 24 µM.

Q: What about the Kd ([5]; read-out: Kd,app,model1 (melting temperature analysis), single-site model, Eq. (1), first transition) of the same molecule?
A: Its Kd is 144 µM.

Q: What about the Kd ([5]; read-out: Kd,app,model2 (melting temperature analysis), model 2, Eq. (4), first transition) of the same molecule?
A: The Kd was 10.2 µM.

Q: For adenosine diphosphate ribose [ADPR], which “Tm” value [6] is on record?
A: Its value is 50–60 °C.

Q: What about the “Tm” value [7] of the same molecule?
A: Its value is 51–56 °C.

— paper PMC8099913, “FoldAffinity: binding affinities from nDSF experiments” (Scientific Reports, 2021)
